Test results from patent US20190030009A1, “COMPOUNDS AND COMPOSITIONS FOR THE TREATMENT OF CRYPTOSPORIDIOSIS” (Novartis AG, priority 2016, published 2019).

Assays:
Cryptosporidium parvum = test: Cytopathic effect (CPE) based assay, C. parvum infected HCT-8 cells; details: HCT-8 host cell viability (CellTiter-Glo), 48 hours treatment, read-out: Cp CPE EC50
In short: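 HCT-8 cells were batch-infected with excysted C. parvum (Iowa isolate) oocysts at MOI 1:2 (host:parasite) for 3 h at 37 °C, then seeded and incubated 24 h before compound addition. Compounds were given as 3-fold dilution series (final DMSO <0.5%). Host-cell loss (cytopathic effect) was read as viability with CellTiter-Glo.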

C. parvum PI(4)K = C. parvum PI(4)K (Cryptosporidium parvum, UniProt Q5CVD3); test: CpPI(4)K enzymatic assay (Transcreener ADP2 FP); format: biochemical
Sequence of C. parvum PI(4)K (Q5CVD3 entry or part of it): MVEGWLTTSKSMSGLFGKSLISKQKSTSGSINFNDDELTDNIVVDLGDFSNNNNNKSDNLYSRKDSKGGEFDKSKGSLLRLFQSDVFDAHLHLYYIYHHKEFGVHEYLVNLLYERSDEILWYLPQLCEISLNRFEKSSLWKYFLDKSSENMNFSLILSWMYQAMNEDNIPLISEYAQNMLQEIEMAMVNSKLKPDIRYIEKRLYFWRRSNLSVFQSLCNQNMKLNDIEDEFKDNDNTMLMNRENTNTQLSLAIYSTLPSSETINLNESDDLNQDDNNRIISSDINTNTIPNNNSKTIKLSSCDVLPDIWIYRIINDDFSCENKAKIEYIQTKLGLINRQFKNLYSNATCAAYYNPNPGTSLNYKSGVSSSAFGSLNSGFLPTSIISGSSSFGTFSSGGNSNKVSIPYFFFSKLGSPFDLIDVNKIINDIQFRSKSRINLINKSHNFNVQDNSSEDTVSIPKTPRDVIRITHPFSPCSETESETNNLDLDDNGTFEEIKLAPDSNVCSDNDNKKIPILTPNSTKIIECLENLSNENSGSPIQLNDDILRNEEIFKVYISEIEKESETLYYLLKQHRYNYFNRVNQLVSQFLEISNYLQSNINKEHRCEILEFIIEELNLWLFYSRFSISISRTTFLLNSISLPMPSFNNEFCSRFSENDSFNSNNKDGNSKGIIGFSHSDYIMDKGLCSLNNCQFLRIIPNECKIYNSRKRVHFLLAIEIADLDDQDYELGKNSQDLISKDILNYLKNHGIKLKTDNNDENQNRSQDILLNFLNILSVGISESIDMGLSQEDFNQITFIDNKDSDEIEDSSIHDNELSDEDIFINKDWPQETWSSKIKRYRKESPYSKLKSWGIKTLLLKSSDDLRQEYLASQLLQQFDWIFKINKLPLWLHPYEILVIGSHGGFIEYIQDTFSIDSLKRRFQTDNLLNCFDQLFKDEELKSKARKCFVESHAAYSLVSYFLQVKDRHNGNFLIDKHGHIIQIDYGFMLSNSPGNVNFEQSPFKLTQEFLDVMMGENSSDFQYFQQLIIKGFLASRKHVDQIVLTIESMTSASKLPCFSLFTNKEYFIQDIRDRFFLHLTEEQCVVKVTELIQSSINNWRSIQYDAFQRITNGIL
Description: The full-length coding sequence of C. parvum PI(4)K (cgd8_4500, 1114 amino acids) was codon-optimized for baculovirus expression, synthesized and cloned into pFastBac-HTb (Invitrogen 10584-027) in frame with the amino-terminal polyhistidine tag using the BamHI and Hindlll restriction sites. Recombinant pFastBacHTb-CpPI(4)K bacmid clones were generated by site-specific transposition in E. coli DH10Bac (Invitrogen 10361-012). The bacmid sequence was confirmed by direct DNA sequencing to confirm a lack of mutations across the whole gene. The subsequent steps for bacmid isolation, transfection and selection of the recombinant viruses were performed according to the manufacturer's protocol (Bac-to-Bac system #10359, Invitrogen).
SF9 cells, cultured in SF-900 III serum-free medium, were transfected with recombinant baculovirus at 1/200 (v/v) and incubated at 27° C. for 72 h. The pellets were collected after centrifugation and re-suspended in cell lysis buffer (20 mM Tris-HCl, pH 7.5, 300 mM NaCl, 1 mM DTT, 20 mM imidazole, 0.01% Triton X-100 and 1× complete protease inhibitor cocktail without EDTA (Roche Diagnostics 04693116001)). The cell suspension was lysed by sonication and the clarified supernatant was loaded onto a 1 ml HisTrap affinity column (GE Healthcare) pre-equilibrated with buffer A (20 mM Tris-HCl, pH 7.5, 300 mM NaCl, 1 mM DTT, 20 mM Imidazole, and 1× complete protease inhibitor cocktail without EDTA). The column was washed with buffer B (buffer A containing 45 mM imidazole) and the bound protein of interest was eluted with buffer C (buffer A with 90 mM imidazole). The fractions containing CpPI(4)K were pooled, concentrated using Amicon Ultra-15 and purified by a gel-filtration column (Hi-Load 26/60 Superdex 200, GE Healthcare) equilibrated with 20 mM Tris, pH 7.5, 300 mM NaCl, 1 mM DTT and 1× protease inhibitor cocktail without EDTA. The concentrations of the purified protein (Mw 132.39 kda) was determined by using the protein molar extinction coefficient (ε280 nm=133,810 M^−1 cm^−1). Aliquots were flash frozen in liquid nitrogen and immediately stored at −80° C.
The CpPI(4)K enzymatic assay was performed as described earlier with a some modifications (McNamara et al., 2013). Briefly, L-α-phosphatidylinositol (Avanti Polar Lipid 840046), dissolved in 3% n-octylglucoside (Roche Diagnostics 10634425001), was used as the lipid substrate for the PI(4)K activity assay. CpPI(4)K was assayed using Transcreener ADP2 FP detection kit (BellBrook 3010) in a black, solid 384-well plate (Corning 3575). The final assay volume was 10 μl and contained 3 nM of the respective CpPI(4)K construct in 10 mM Tris, pH 7.5, 1 mM DTT, 3 μM ATP, 5 mM Mn2+, 0.05% Triton X-100 and 10 μM phosphatidylinositol/octylglucoside. The enzyme reaction was performed for 50 minutes at room temperature and was stopped by adding 10 μl of detection mix containing 1× stop buffer (50 mM HEPES, pH7.5, 400 mM NaCl, 20 mM EDTA, and 0.02% Brij-35), 2 nM AMP Alexa Fluor 633 tracer, and 20 μg ml^−1 ADP antibody. Fluorescence polarization measurements were performed on the Infinite M1000 plate reader (Tecan) with λex=635 nm and λem=680 nm (20-nm bandwidth). IC50 values were calculated using Graphpad Prism software.
The inhibitory concentration (IC50) of selected compounds on the C. parvPI(4)K activity is provided in the third column [Cp_PI4K_enz IC50 (μM)] of Table II.

[1] = Cytotoxicity against HepG2; format: cell-based; details: human, HepG2 cells (ATCC HB-8065), 5 days exposure
Procedure: Cytotoxicity against HepG2 (ATCC# HB-8065), a human liver cancer cell line, was determined as previously described earlier (Manjunatha et al., 2015). Briefly, cells were seeded at a density of 10^5 cells per well, incubated at 37° C. for 24 h and exposed to two-fold serially-diluted compounds for 5 days. Cell viability was monitored using the Cell Proliferation Kit II (Invitrogen). The cytotoxicity values of selected compounds are reported in the fifth column [HepG2 CC50 (μM)] of Table II.

C. parvum = test: High content imaging assay, C. parvum infected HCT-8 cells; format: cell-based; details: Cryptosporidium parvum, percentage of infected HCT-8 cells, 48 hours treatment, read-out: Cp HCl IC50
Procedure: (§1) Human ileocecal colorectal adenocarcinoma cells (HCT-8 [HRT-18] ATCC, CCL-34) were maintained in T-175 flasks (Corning, 431080) in complete growth medium (RPMI-1640 medium (Gibco, 11875) supplemented with 10% heat-inactivated horse serum (Gibco, 26050), 1×MEM non-essential amino acids (Gibco, 11140), 10 mM HEPES (Gibco, 15630), 100 units/mL penicillin, and 100 units/mL streptomycin) at 37° C. and 5% CO2 in a humidified incubator. Cultures were passaged twice weekly using 10 mL of 1×Phosphate-Buffered Saline (PBS) without Ca^2+ and Mg^2+ (Gibco, 20012) for washing and 3-5 mL per T-175 flask of TrypLE Express Enzyme (Gibco, 12604) for dissociation of adherent cells.
Cryptosporidium parvum oocysts purchased from the Sterling Laboratory, University of Arizona (Iowa isolate) were purified from infected calf feces using discontinuous sucrose and cesium chloride centrifugation gradients and stored in PBS solution containing 0.01% Tween 20, 100 units/mL penicillin and 100 units/mL gentamicin.
(§2) Excystation and infection protocols were developed following established methods with some modifications (Gut & Nelson, 1999, Upton et aL, 1995, Bessoff et aL, 2013). Briefly, oocysts were primed in 1 mL of 10 mM hydrochloric acid in 1× Hank's Balanced Salt Solution (HBSS) (Gibco, 14025) for 10 minutes with agitation at 1000 rpm, 37° C. on an Eppendorf thermomixer, then washed twice with 1 mL of room temperature non-acidic 1× HBSS by centrifugation at 13,000 rpm for 3 minutes at 25° C. Primed oocysts were further excysted at a concentration of 1×10^6 oocysts/μL in parasite infection medium consisting of a pre-warmed and pre-gassed 1:1 formulation of Leibovitz's L-15 medium (Gibco, 11415) and UltraCULTURE medium (Lonza, 12-725F) supplemented with 2 mM sodium taurocholate (Sigma, 86339-1), 10% heat-inactivated horse serum, and 200 μM L-ascorbic acid (Sigma, 95210) at 25° C. for 10 minutes. HCT-8 monolayer cells were infected with excysted cryptosporidium at a specified multiplicity of infection (MOI). All dilutions for subsequent assays were performed in parasite infection medium without sodium taurocholate. Pre-excysted oocysts were enumerated microscopically using a C-Chip disposable hemocytometer (NanoEnTek, DHC-N01).
(§3) Compound powders were dissolved in neat DMSO (Fisher, D4121) to 10 mM and stored at 4° C. prior to dilution into source plates. Dilutions were carried out using a Microlab STAR liquid handler (Hamilton) to obtain compound source plates containing the ten-point or eight-point three fold dilutions starting from 10 mM in duplicates. Source plates were stored at 4° C. prior to spotting into assay plates. Before administration, all compound source plates were equilibrated to room temperature. A specified volume of compounds from source plate were spotted to assay plate using an Echo Acoustic liquid handler (LABCYTE, 550) so that the final DMSO concentration was less than 0.5%. Each assay plate a specified number of DMSO-treated negative control wells and a well-studied potent active compound at 100 nM as positive control. As a quality control, all positive and negative-control wells were used to calculate a Z′-value and signal to noise ratio (S:N) for each plate.
Imaging assays were developed following established Cryptosporidium spp labeling and in vitro infection models with some modifications (Bessoff et aL, 2013, Gut & Nelson, 1999). Briefly, 2×10^4 HCT-8 cells per well were seeded into 384-well, flat black clear-bottom OPERA assay plates (Greiner, 789071-G) at 20 μL per well in complete growth medium using a Multidrop Combi liquid handler (ThermoScientific, 5840300) and standard tube dispensing cassette (ThermoScientific, 24072670) and incubated for 24 hours at 37° C. The HCT-8 cells were infected with 10 μL per well of 1×10^4 excysted C. parvum oocysts (host to parasite MOI of 1:0.5) or 10 μL per well of 4×10^4 excysted C. hominis oocysts (MOI 1:2) in parasite infection medium using the Multidrop and incubated at 37° C. […]

Cryptosporidium hominis = test: Cytopathic effect (CPE) based assay, C. hominis infected HCT-8 cells; details: HCT-8 host cell viability (CellTiter-Glo), 48 hours treatment, read-out: Ch CPE EC50
Procedure: as §1
Cryptosporidium hominis oocysts were purchased from the Tufts University Cummings School of Veterinary Medicine (courtesy of Dr. Saul Tzipori). C. hominis oocysts were purified from infected gnotobiotic piglet feces and stored in PBS solution containing 0.01% Tween-20, 100 units/mL penicillin and 100 units/mL gentamicin. C. parvum and C. hominis oocysts less than three months old from the date of shedding were used in infection experiments.
as §2, §3
Cryptosporidium spp are obligate-intracellular parasites that infect intestinal epithelial cells and the host cell is killed upon parasite egress. […] The loss of epithelial cells is due to both rapid parasite invasion/multiplication/egress and also pro-inflammatory immune response (Adams et al., 1994, Griffiths et al., 1994). We have observed a consistent cytopathic effect (CPE) in HCT-8 cells with C. spp infection the loss of viability of the host cells using CellTiter-Glo reagent.
Confluent HCT-8 cells in T-175 flasks were directly infected with excysted oocysts at an MOI (host to parasite) of 1:2 for C. parvum and 1:4 for C. hominis. […]

IC50 (C. parvum) [nM] | Compound | EC50 (Cryptosporidium parvum) [nM] | IC50 (C. parvum PI(4)K) [nM] | CC50 at 5 days [1] [µM] | EC50 (Cryptosporidium hominis) [nM]
 | CN(C(=O)c1ccn2ncc(-c3ccc(N)nc3)c2c1)c1ccc(C#N)cn1 [Example 54] | 324 | 74 | > 50 | 
 | CC(Cn1cccn1)N(C(=O)c1ccn2ncc(-c3ccc(C(N)=O)cc3)c2c1)c1ccc(C#N)cn1 (stereo not shown) [Example 77] | 582 | 50 | 29.3 | 
 | CN(C(=O)c1ccn2ncc(-c3ccc(C(N)=O)cc3)c2c1)c1ccc(C#N)cc1 [Example 19] | 37 | 3 | 5.91 | 
 | CNC(=O)c1ccc(-c2cnn3ccc(C(=O)N(c4ccc(C#N)cn4)C4CCCC4)cc23)cc1 [Example 126] | 410 | 71 | 22.1 | 
 | CNC(=O)c1ccc(-c2cnn3ccc(C(=O)N(CC4CC4)c4ccc(C#N)cn4)cc23)cc1 [Example 117] | 505 | 7 | 4.33 | 
 | CC(C)[C@H](N)C(=O)Nc1ccc(-c2cnn3ccc(C(=O)N(C)c4ccc(C#N)cc4)cc23)cc1 [Example 45] | 332 | 239 |  | 
 | CN(C(=O)c1ccn2ncc(-c3cnc4[nH]ccc4c3)c2c1)c1ccc(C#N)cn1 [Example 53] | 550 | 47 |  | 
58 | CN(C(=O)c1ccn2ncc(-c3ccc(C(N)=O)cc3)c2c1)c1ccc(C#N)cn1 [Example 32] | 93 |  | 15.8 | 119
 | CN(C(=O)c1ccn2ncc(-c3ccc(C(N)=O)cn3)c2c1)c1ccc(C#N)cc1 [Example 27] | 815 | 140 |  | 
 | CNC(=O)c1ccc(-c2cnn3ccc(C(=O)N(c4ccc(C#N)cn4)C(C)(C)C)cc23)cc1 [Example 119] | 1930 |  | 20.1 | 1940
8 | CNC(=O)c1ccc(-c2cnn3ccc(C(=O)N(C)c4ccc(C(F)(F)F)cc4)cc23)cc1 [Example 103] | 7 |  | 8.06 | 
 | CNC(=O)c1ccc(-c2cnn3ccc(C(=O)N(C)c4ccc(C#N)cc4)cc23)cn1 [Example 97] | 241 | 73 | 31.1 | 
